Converted amounts (≈) assume the structure as drawn.
What was measured:
[1] = system: APV-luciferase; format: cell-based, avian pneumovirus (APV)
[2] = system: BS-C-1 cells; assay: Cell viability, MTT assay; format: cell-based
From the text: For the negative control, cells were killed with 1% w/v SDS.

[3] = system: RSV; assay: microbe, parasite or virus in culture; format: cell-based, human respiratory syncytial virus (RSV)
[4] = system: APV; assay: microbe, parasite or virus in culture; format: cell-based, avian pneumovirus (APV)
[5] = system: RSV; assay: Reduction in plaque number on BS-C-1 cells; format: cell-based, human respiratory syncytial virus (RSV); conditions: RSV on BS-C-1 cells; 30 μg/ml drug
[6] = system: RSV; conditions: HeLa cells, Kawana 1987, Watanabe 1994; cited from earlier work

Row | SMILES | Antiviral activity against APV (luciferase reporter) ([1]; 100 ng/ml, FIG. 3C) | Toxicity to the cells ([2]; 100 ng/ml, FIG. 3D) | CAT expression ([3]; RSV, 50 μg/ml, FIG. 1) | Effect on CAT expression ([3]; RSV, lowest concentration tested, 10 μg/ml, FIG. 1) | EC50 ([3]; human respiratory syncytial virus, BSC-1, read-out: EC50 (50% effective concentration)) | EC90 ([3]; human respiratory syncytial virus, BSC-1, read-out: EC90 (90% effective concentration)) | Effect on CAT expression ([4]; APV, lowest concentration tested, 10 μg/ml, FIG. 1) | EC50 ([4]; avian metapneumovirus, BSC-1, read-out: EC50 (50% effective concentration)) | EC90 ([4]; avian metapneumovirus, BSC-1, read-out: EC90 (90% effective concentration)) | Inhibition of APV (luciferase reporter) ([1]; higher concentrations of ribavirin, FIG. 3A) | Toxicity to the cells ([2]; concentrations used in the experiment, FIG. 3B) | Reduction in titre (plaque number) [5] | EC50, published values [6]
1 | COc1c(C)c2c(c(O)c1C/C=C(\C)CCC(=O)O)C(=O)OC2 [MPA, mycophenolic acid] | has antiviral activity | not toxic |  |  |  |  |  |  |  |  |  |  | 
2 | NC(=O)c1ncn([C@@H]2O[C@H](CO)[C@@H](O)[C@H]2O)n1 [ribavirin] |  |  | undetectable | obvious inhibitory effect | 4.2 µg/mL (≈ 17.2 µM) | 17.1 µg/mL (≈ 70 µM) | obvious inhibitory effect | 9 µg/mL (≈ 36.9 µM) | 25.4 µg/mL (≈ 104 µM) | strongly inhibited | not toxic | 100 fold | 3.1 to 6.2 µg/mL
